Measurements: patent US10081609B2, “Compounds for inducing proliferation and differentiation of cells, and methods of use thereof” (The Broad Institute, Inc., priority 2013, dated 2018)

Tests used:
[1] = system: human primary hepatocytes; experiment: Expansion of human primary hepatocytes on growth-arrested J2-3T3 feeder layer in 12-well plates (imaging, cell counting, FACS, biochemical assays); type: cell-based; conditions: 20 μM on days 1 and 5, 7 days culture
Method: Culture media were collected and frozen at −20° C. until analysis. Albumin content was measured through sandwich ELISA assays (MP Biomedicals, Fitzgerald, Bethyl Laboratories) using horseradish peroxidase detection and 3,3′,5,5′-tetramethylbenzidine (TMB, Fitzgerald Industries) as a substrate. Urea concentration was determined colorimetrically using diacetylmonoxime with acid and heat (Stanbio Labs). To quantify CYP450 activity, at 48 hours after small molecule exposure, cultures were incubated with substrates (coumarin from Sigma for CYP2A6, luciferin-IPA from Promega for CYP3A4) for 4 hours at 37° C. Incubation medium was collected and metabolite concentration quantified via luminescence, or fluorescence after hydrolization of potential metabolite conjugates by β-glucuronidase/arylsulfatase (Roche, Ind.).
To characterize the effects of FPH1 and FPH2 outside of the screening platform, human primary hepatocytes were seeded at a density of ˜20,000 cells/cm^2, into standard 12-well tissue culture plates on top of a feeder layer of growth-arrested J2-3T3s. These cells were cultured for 7 days, during which time a single compound/FPH was supplemented into the media on days 1 and 5 at a concentration of 20 μM. Treated hepatocyte colonies increased in size over time, with more hepatocytes populating each colony (FIG. 2D, 2E).
To characterize the degree of proliferation and to obtain a doubling time, cells were counted and fluorescence-activated cell sorting (FACS) was performed (FIG. 2H). For cell counting, FPH-treated cells were trypsinized after seven days in culture. The number of cells was quantified using an automated cell counter. The number of hepatocytes was obtained by subtracting the number of fibroblasts from the total number of cells found in the corresponding co-culture. For FACS analysis, growth arrested J2-3T3s were labeled with CM-DiI prior to initiation of co-culture so that hepatocytes can be identified via negative selection. To enable cell counting during FACS, each sample was supplemented with fluorescent counting beads. […] Over 7 days, FPH1 induced hepatocyte doublings at a rate that is consistent with reported liver regeneration kinetics in vivo.
To assess the phenotype of the treated hepatocytes, imaging, biochemical analyses and gene expression profiling were performed. […] Albumin secretion and urea synthesis, a surrogate marker of nitrogen metabolism, were both stable throughout FPH treatment (FIG. 3A top and middle). Metabolic functions were assessed via examinations of cytochrome P450 (CYP450) activity and canalicular transport. […] Gene expression profiling confirmed that there are no significant differences between FPH-treated and untreated hepatocytes (FIG. 3C).

[2] = system: primary human hepatocytes; experiment: Expansion of primary human hepatocytes from six additional cell sources (Ki67/albumin staining, FACS); type: cell-based
Method: On day seven, the number of hepatocytes was quantified by FACS analysis (FIG. 6B). Day one untreated controls was added to the bar graph for reference.

[3] = system: human primary hepatocytes; experiment: High-throughput liver platform, primary screening: hepatocyte proliferation by automated high-content imaging (hepatocyte nuclei numbers); type: cell-based; conditions: primary screening
Method: In order to avoid species-specific differences and cell line mutations, the screen was conducted with human primary hepatocytes. Traditionally, chemical screening on such cells has been hindered by their availability in large quantities as well as their rapid loss of viability and phenotype in vitro. Recent advances in cryopreservation technologies allowed enough primary human cells to be stored for screening; these cells are maintained through co-cultivation with non-parenchymal cells. Co-cultures of primary human hepatocytes with murine embryonic J2-3T3 fibroblasts were recently shown to maintain normal hepatocyte phenotype for weeks. These in vitro platforms consisted of hepatocytes surrounded by a co-planar population of fibroblasts. While sufficient for stabilizing hepatocyte functions in vitro, such platforms may limit normal hepatocyte expansion due to contact inhibition. Thus, for this screen, a sparse population of hepatocytes was co-cultivated on top of a confluent feeder layer of J2-3T3 fibroblasts within 384-well plates (FIG. 1A top). This screening platform stabilized hepatocyte phenotypic functions in vitro (FIG. 1A bottom) and was compatible with two separate high-throughput readouts developed for this screen.
The primary readout detected hepatocyte proliferation via automated high-content imaging. This assay quantified hepatocyte nuclei numbers, using nuclear morphologies to separate the hepatocyte and fibroblast subpopulations that co-exist within the screening platform. When visualized with Hoechst stain, hepatocyte nuclei were smaller and more uniform in texture while fibroblast nuclei were larger and punctated (FIG. 1A bottom). Leveraging this distinction, automated image analyses was developed that utilized machine learning algorithms to classify nuclei types and tabulate hepatocyte nuclei numbers. […] Besides quantifying hepatocyte nuclei that have completed mitosis, the number of nuclei in the process of mitosis were also quantified. Two additional analysis pipelines were built to detect nuclear morphologies consistent with cells undergoing metaphase and anaphase.
FIG. 1B top summarizes the workflow of the screen. Primary screening was done on human primary hepatocytes, preconditioned for seven days by non-parenchymal cells in the screening platform. Upon stabilization in vitro, cultures were treated with the chemical library for 48 hours. All compounds were tested in duplicates, at a single concentration of 15 μM. This single concentration was selected via a pilot screen of ˜2,000 small molecules. All 12,480 small molecules were initially tested on a single donor of cryopreserved hepatocytes (donor a) in order to eliminate noise from donor-to-donor variability. Following compound treatment, media supernatants were collected for functional analyses via ELISA and cultures were fixed in 4% paraformaldehyde for proliferation analyses via imaging.
To identify proliferation hits, three image-based readouts—one each to quantify the number of (1) hepatocyte nuclei in interphase, (2) nuclei in metaphase and (3) nuclei in anaphase—were integrated. z Scores were converted into p values, which were then used to generate ranked lists of compounds based on the efficacy and consistency of effects across the different proliferation readouts. Efficacy was assessed by the product of p values (pprod=pinter×pmeta×pana); consistency was evaluated by the maximum of p values (pmax=max(pinter, pmeta, pana). Compounds were considered proliferation hits if pprod<1×10^−6 and pmax<0.25. Functional hits were selected by an ELISA […]. Compounds with ELISA z>3.0 were eliminated as toxic. 93 compounds met all hit selection criteria, qualifying as Functional Proliferation Hits (FPH); FIG. 1B bottom illustrates the types of compounds that constituted this set of hits.

PI3KCγ = experiment: Kinome analysis (panel of kinases); type: biochemical; conditions: 1 μM
Method: (§1) Selected compounds of the invention (FPH1 and FPH2; both at 1 μM concentration) were screened against a panel of kinases (FIG. 17).

EphB4 = EphB4 (Homo sapiens, UniProt P54760); experiment: Kinome analysis (panel of kinases); type: biochemical
EphB4, sequence (P54760 16-987, species assumed): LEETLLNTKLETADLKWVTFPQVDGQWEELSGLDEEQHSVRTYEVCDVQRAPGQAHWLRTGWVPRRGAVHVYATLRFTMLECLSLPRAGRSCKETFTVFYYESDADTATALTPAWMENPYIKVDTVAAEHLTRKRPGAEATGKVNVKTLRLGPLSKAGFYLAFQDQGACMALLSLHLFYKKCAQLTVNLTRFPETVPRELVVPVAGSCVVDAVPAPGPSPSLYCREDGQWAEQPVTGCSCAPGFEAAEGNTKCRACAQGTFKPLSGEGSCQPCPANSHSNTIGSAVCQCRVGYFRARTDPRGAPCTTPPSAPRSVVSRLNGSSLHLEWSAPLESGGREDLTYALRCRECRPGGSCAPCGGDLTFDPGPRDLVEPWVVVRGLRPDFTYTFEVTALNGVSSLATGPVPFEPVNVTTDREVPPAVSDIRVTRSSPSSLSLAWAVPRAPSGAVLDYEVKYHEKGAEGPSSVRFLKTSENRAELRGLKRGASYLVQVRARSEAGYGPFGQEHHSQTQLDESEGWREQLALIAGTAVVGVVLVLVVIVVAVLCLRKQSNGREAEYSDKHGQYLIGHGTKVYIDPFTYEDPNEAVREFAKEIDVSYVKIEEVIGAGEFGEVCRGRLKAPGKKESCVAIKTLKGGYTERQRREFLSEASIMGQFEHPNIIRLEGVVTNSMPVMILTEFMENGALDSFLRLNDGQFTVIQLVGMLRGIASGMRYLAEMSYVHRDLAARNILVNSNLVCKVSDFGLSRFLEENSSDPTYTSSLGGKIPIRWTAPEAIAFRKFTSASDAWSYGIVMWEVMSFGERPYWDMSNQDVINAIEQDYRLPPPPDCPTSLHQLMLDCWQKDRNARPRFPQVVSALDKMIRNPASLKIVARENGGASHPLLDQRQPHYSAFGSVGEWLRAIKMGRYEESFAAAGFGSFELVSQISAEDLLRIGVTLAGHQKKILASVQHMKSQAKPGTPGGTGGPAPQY
Method: as §1

MAPKAPKV (PRAK) = MAPKAPKV (PRAK) (Homo sapiens, UniProt Q8IW41); experiment: Kinome analysis (panel of kinases); type: biochemical; conditions: read-out: MAPKAPKV (PRAK) inhibition
MAPKAPKV (PRAK), sequence (Q8IW41 whole entry, species assumed): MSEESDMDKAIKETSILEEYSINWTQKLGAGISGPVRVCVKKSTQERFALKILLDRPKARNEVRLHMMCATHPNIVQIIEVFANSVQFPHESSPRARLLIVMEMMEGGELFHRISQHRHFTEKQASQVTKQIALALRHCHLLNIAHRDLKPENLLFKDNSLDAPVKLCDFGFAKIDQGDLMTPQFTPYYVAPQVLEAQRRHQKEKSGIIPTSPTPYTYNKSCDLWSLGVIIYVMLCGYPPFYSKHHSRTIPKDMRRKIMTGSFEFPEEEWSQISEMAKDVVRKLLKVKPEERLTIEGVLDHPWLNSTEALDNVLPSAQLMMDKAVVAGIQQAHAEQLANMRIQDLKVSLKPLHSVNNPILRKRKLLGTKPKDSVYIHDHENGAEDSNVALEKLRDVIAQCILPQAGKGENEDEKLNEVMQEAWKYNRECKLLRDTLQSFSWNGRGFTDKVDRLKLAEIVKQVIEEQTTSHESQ
Method: as §1

DAPK1 = DAPK1 (Homo sapiens, UniProt P53355); experiment: Kinome analysis (panel of kinases); type: biochemical
DAPK1, sequence (P53355 whole entry, species assumed): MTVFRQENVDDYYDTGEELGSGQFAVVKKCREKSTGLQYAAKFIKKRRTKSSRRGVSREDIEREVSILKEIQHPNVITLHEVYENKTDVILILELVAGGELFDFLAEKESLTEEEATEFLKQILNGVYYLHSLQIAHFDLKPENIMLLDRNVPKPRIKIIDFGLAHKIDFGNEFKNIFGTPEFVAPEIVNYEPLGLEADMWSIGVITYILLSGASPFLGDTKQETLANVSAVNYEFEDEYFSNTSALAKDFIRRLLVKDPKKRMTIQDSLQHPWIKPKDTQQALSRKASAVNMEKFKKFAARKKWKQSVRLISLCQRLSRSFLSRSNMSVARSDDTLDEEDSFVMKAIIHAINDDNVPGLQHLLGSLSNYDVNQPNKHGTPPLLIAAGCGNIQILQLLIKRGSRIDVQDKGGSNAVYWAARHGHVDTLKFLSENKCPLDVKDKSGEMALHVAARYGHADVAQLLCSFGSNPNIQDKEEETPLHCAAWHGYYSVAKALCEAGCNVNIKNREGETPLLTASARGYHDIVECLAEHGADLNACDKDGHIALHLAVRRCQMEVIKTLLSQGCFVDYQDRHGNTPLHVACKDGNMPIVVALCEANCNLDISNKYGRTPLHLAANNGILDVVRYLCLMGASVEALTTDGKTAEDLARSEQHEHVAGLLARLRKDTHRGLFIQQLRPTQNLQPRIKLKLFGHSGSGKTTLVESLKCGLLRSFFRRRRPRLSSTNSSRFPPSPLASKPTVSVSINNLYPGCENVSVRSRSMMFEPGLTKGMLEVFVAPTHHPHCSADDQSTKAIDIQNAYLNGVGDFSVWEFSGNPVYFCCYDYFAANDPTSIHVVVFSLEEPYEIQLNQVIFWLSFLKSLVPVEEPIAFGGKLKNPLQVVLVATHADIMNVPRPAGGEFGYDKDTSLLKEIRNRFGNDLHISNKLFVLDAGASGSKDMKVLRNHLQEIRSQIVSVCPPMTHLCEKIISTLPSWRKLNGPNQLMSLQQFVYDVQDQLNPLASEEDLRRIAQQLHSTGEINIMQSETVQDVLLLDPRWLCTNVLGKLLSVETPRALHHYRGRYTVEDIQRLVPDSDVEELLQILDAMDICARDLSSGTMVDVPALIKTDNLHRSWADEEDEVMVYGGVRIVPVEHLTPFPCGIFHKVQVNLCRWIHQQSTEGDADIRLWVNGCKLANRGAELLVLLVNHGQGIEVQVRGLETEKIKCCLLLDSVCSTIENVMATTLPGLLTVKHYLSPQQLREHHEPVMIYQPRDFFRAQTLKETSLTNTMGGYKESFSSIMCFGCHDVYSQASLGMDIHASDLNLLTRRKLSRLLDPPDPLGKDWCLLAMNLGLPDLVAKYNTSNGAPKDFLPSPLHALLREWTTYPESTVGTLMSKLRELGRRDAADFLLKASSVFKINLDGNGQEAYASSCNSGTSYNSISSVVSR
Method: as §1

NEK9 = NEK9 (Homo sapiens, UniProt Q8TD19); experiment: Kinome analysis (panel of kinases); type: biochemical
NEK9, sequence (Q8TD19 whole entry, species assumed): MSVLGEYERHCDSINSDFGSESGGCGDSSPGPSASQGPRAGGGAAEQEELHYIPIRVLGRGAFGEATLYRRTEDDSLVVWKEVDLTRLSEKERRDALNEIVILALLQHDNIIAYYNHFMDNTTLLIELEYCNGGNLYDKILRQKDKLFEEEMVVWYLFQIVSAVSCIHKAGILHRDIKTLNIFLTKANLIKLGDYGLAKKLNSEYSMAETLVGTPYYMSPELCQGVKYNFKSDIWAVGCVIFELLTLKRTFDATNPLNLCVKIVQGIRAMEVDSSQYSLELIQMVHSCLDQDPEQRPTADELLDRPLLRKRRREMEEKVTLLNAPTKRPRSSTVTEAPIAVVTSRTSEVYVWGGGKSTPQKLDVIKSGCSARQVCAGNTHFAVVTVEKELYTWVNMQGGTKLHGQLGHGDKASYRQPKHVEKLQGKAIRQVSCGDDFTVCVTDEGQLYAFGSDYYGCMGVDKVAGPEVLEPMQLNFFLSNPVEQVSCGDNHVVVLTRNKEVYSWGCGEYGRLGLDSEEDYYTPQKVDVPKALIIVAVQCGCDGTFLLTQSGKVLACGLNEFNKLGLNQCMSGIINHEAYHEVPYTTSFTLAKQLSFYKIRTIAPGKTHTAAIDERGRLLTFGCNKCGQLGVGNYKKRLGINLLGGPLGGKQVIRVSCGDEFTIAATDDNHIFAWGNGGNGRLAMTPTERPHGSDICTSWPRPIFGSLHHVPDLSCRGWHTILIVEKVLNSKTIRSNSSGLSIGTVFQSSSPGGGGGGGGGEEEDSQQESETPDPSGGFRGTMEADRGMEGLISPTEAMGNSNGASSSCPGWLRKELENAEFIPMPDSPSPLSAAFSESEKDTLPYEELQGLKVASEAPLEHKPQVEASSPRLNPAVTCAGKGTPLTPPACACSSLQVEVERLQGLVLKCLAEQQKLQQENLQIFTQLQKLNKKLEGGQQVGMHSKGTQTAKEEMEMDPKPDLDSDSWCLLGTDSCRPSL
Method: as §1

CK1 γ2 = CK1 γ2 (Homo sapiens, UniProt P78368); experiment: Kinome analysis (panel of kinases); type: biochemical
CK1 γ2, sequence (P78368 whole entry): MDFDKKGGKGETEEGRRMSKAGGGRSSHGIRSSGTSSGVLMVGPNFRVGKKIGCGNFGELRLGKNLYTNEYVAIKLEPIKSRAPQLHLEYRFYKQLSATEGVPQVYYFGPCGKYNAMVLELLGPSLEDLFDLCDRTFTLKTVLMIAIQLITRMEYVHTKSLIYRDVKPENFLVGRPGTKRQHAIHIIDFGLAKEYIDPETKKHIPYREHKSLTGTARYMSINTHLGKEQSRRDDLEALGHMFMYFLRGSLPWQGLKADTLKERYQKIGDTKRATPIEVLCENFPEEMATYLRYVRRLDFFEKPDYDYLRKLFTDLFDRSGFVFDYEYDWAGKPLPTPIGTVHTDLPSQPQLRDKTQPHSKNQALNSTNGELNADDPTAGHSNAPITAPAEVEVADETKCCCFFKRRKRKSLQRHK
Method: as §1

- number of hepatocytes by FACS ([2]; day seven, all donors): increase
- Ki67 staining co-localized with albumin labeled hepatocytes ([2]; six additional cell sources, six days in culture): increased
- inhibition at 1 µM (EphB4): 18.4 to 30%
- inhibition at 1 µM (MAPKAPKV (PRAK)): 6.7 to 18.4%
- inhibition at 1 µM (DAPK1): 6.7 to 18.4%
- inhibition at 1 µM (CK1 γ2): 6.7 to 18.4%
SMILES: Cc1ccc(Cl)cc1N(CC(=O)Nc1c(F)cccc1F)S(C)(=O)=O [FPH2, 2-(N-(5-chloro-2-methylphenyl)methylsulfonamido)-N-(2,6-difluorophenyl)acetamide]
- Ki67 staining / number of Ki67-positive nuclei [1]: more elevated
- increase in the area of albumin-positive colonies [1]: ≤ 3.5 fold
- number of nuclei undergoing mitosis [3]: elevated
- increase in hepatocyte nuclei numbers during primary screening ([3]; 15 μM, 48 hours): 1.5 ×
- PI3KCγ inhibition (PI3KCγ): 6.7-18.4%
- inhibition at 1 µM (NEK9): 6.7 to 18.4%
